Like-named read-outs stand apart in the source and are kept apart here.
Key:
Type in all cases: cell-based
[1] = system: Xanthomonas campestris B-610; assay: Agar-well diffusion, bactericidal activity; settings: Xanthomonas campestris
Experimental: Bacteria M. luteus, P. carotovorum subsp. carotovorum, P. atrosepticum, and P. fluorescens were grown in a meat–peptone medium (BP), and X. campestris was grown in the medium with glucose, yeast extract, and calcium carbonate (GYCa). Solid media contained Bacto agar (18 g/L); pH was adjusted to 7.2–7.4. […] For inoculum preparation, both fungal strains were initially grown on the agar GPY in Petri dishes and then transferred into the seed medium by punching out 5 mm of the agar plate culture with a self-designed cutter.
(§1) The antibacterial and antifungal activities of the compounds were explored using the agar-well diffusion method and the technique of mycelial radial growth inhibition. The method of diffusion in agar (measuring the diameter of growth inhibition zones) was used to determine the bactericidal activity. The 6-mm wells were made in agar medium (GYCa for Xanthomonas campestris or BP for other bacteria). Bacterial suspensions were distributed over the agar surface, and the tested compound’s solution (150 μL) was added to each well. The width of growth inhibition zones around the wells was determined after incubation for 36–40 h.

[2] = system: five representative phytopathogens; assay: Agar-well diffusion, bactericidal activity over the panel of phytopathogens; settings: 36 h, 2 mM solutions; dependent on the test system used; read-out: inhibition zone width (mm), range over the test systems
Description: (§2) Plant pathogenic bacterial strains Micrococcus luteus B-109, Pectobacterium atrosepticum 1043, Pectobacterium carotovorum subsp. carotovorum MI, Pseudomonas fluorescens EL-2.1, and Xanthomonas campestris B-610 and the fungal strain Fusarium oxysporum IBPPM 543 were from the Collection of Rhizosphere Microorganisms, IBPPM RAS (WFCC no. 975, WDCM no. 1021) (CM IBPPM, http://collection.ibppm.ru). The pathogenic fungus Phytophthora cactorum VKM F-985, provided by the All-Russian Collection of Microorganisms (VKM) and deposited at the A.E. Favorsky Irkutsk Institute of Chemistry, SB RAS, was also used as a test organism. Bacteria M. luteus, P. carotovorum subsp. carotovorum, P. atrosepticum, and P. fluorescens were grown in a meat–peptone medium (BP), and X. campestris was grown in the medium with glucose, yeast extract, and calcium carbonate (GYCa). Solid media contained Bacto agar (18 g/L); pH was adjusted to 7.2–7.4. All bacterial cultures were grown at 28 °C. The mycelial cultures of F. oxysporum and P. cactorum were grown on a glucose–peptone–yeast (GPY) nutrient medium at 27 °C. For inoculum preparation, both fungal strains were initially grown on the agar GPY in Petri dishes and then transferred into the seed medium by punching out 5 mm of the agar plate culture with a self-designed cutter.
as §1

[3] = system: Pectobacterium atrosepticum 1043; assay: Agar-well diffusion, bactericidal activity; settings: Pectobacterium atrosepticum, 1043, 2 mM/L
Description: as §2, §1

[4] = system: Pectobacterium carotovorum subsp. carotovorum MI; assay: Agar-well diffusion, bactericidal activity; settings: Pectobacterium carotovorum, 2 mM/L
Description: as §2, §1

[5] = system: Pseudomonas fluorescens EL-2.1; assay: Agar-well diffusion, bactericidal activity; settings: Pseudomonas fluorescens, EL2.1, 2 mM/L
Description: as §2, §1

Micrococcus luteus B-109 = assay: Agar-well diffusion, bactericidal activity; settings: Micrococcus luteus
Description: as §2, §1

[6] = system: Fusarium oxysporum IBPPM 543; assay: Mycelial radial growth inhibition; settings: Fusarium oxysporum; for inhibition of growth at 1 µM: 1 nmol/mL; for inhibition of growth at 1 µM / inhibition of growth at 5 µM / inhibition of growth at 30 µM / inhibition of growth at 40 µM: read-out: Inhibition value, I (%); for inhibition of growth at 5 µM: 5 nmol/mL; for inhibition of growth at 30 µM: 30 nmol/mL; for inhibition of growth at 40 µM: 40 nmol/mL
Description: as §2
(§3) For the fungicidal activity analysis, radial growth (colony diameters) of the fungi on a solid medium in the absence and in the presence of the compounds 5a–e and 7a–c solutions at various concentrations were compared. The method consisted of the following: A sterile GPY agar medium (20.0 mL), which was melted and then allowed to cool to approximately 60 °C, was mixed with the precisely measured volumes of the solutions under question and poured into a sterile Petri dish (90 mm i.d.). After the solidification of GPY agar, the media were inoculated by the fungus using 10-day-old cultures of F. oxysporum or P. cactorum. The inoculation was conducted by transferring a 5-mm (i.d.) GPY-agar block covered with mycelium to the center of the Petri dish, followed by incubation in a thermostat at 27 °C. The fungicidal effect was scored by the size of the mycelium colony on a Petri dish compared to the control without fungicidal admixtures to GPY agar. Each treatment was performed in at least four replicates in two independent experiments. The observation period ended when the control Petri dish was filled with mycelium (usually after 12 days). […] The solutions of the compounds were prepared with a concentration of 2 mmol/L (stock solution). For comparison, test compounds were also commonly applied as disinfecting agents, and antibiotics were used as a positive control.

[7] = system: Phytophthora cactorum VKM F-985; assay: Mycelial radial growth inhibition; settings: Phytophthora cactorum; for inhibition of growth at 1 µM: 1 nmol/mL; for inhibition of growth at 1 µM / inhibition of growth at 3 µM / inhibition of growth at 7 µM / inhibition of growth at 20 µM / inhibition of growth / inhibition of growth at 40 µM: read-out: Inhibition value, I (%); for inhibition of growth at 3 µM: 3 nmol/mL; for inhibition of growth at 7 µM: 7 nmol/mL; for inhibition of growth at 20 µM: 20 nmol/mL; for inhibition of growth: 27 nmol/mL; for inhibition of growth at 40 µM: 40 nmol/mL
Description: as §2, §3

[8] = Table S3, read-out: Inhibition zone width (mm), not less
[9] = IBPPM543, 72 h, age of the fungus 3 days
[10] = IBPPM543, 120 h, age of the fungus 5 days
[11] = IBPPM543, 168 h, age of the fungus 7 days
[12] = IBPPM543, 216 h, age of the fungus 9 days
[13] = 120 h, age of the fungus 5 days
[14] = 168 h, age of the fungus 7 days
[15] = 216 h, age of the fungus 9 days

## Cc1ccc[n+](CC(=O)N/N=C2\C(=O)N(Cc3cccc(C(F)(F)F)c3)c3ccccc32)c1C [Compound 7c]
[1]; B610, 2 mM/L, average of 3 experiments, read-out: width of the inhibition zone (mm), X. campestris
  zone of inhibition at 2000 µM: 9 mm
[1]; B610, Table S3, 2 mM/L, read-out: Inhibition zone width (mm), not less
  zone of inhibition at 2000 µM: ≥ 9 mm
[2]
  zone of inhibition at 2000 µM: 6 to 9 mm
[3]; average of 3 experiments, read-out: width of the inhibition zone (mm), P. atrosepticum
  zone of inhibition at 2000 µM: 6 mm
[3]; [8]
  zone of inhibition at 2000 µM: ≥ 6 mm
[4]; average of 3 experiments, read-out: width of the inhibition zone (mm), P. carotovorum subsp. carotovorum
  zone of inhibition at 2000 µM: 7 mm
[4]; [8]
  zone of inhibition at 2000 µM: ≥ 7 mm
[5]; average of 3 experiments, read-out: width of the inhibition zone (mm), Ps. fluorescens
  zone of inhibition at 2000 µM: 7 mm
[5]; [8]
  zone of inhibition at 2000 µM: ≥ 7 mm
Micrococcus luteus B-109; B109, 2 mM/L, average of 3 experiments, read-out: width of the inhibition zone (mm), M. luteus
  zone of inhibition at 2000 µM: 7 mm
Micrococcus luteus B-109; B109, Table S3, 2 mM/L, read-out: Inhibition zone width (mm), not less
  zone of inhibition at 2000 µM: ≥ 7 mm
[6]; [9]
  inhibition of growth at 1 µM: 22%
  inhibition of growth at 5 µM: 36%
  inhibition of growth at 30 µM: 45%
  inhibition of growth at 40 µM: 57%
[6]; IBPPM543, 120 h, day 5, read-out: EC50, µg/mL at Day 5, F. oxysporum
  EC50: 13.9 µg/mL
[6]; [10]
  inhibition of growth at 1 µM: 21%
  inhibition of growth at 5 µM: 35%
  inhibition of growth at 30 µM: 41%
  inhibition of growth at 40 µM: 63%
[6]; [11]
  inhibition of growth at 1 µM: 15%
  inhibition of growth at 5 µM: 27%
  inhibition of growth at 30 µM: 44%
  inhibition of growth at 40 µM: 66%
[6]; [12]
  inhibition of growth at 1 µM: 10%
  inhibition of growth at 5 µM: 22%
  inhibition of growth at 30 µM: 36%
  inhibition of growth at 40 µM: 64%
[7]; 72 h, age of the fungus 3 days
  inhibition of growth at 1 µM: 10%
  inhibition of growth at 3 µM: 20%
  inhibition of growth at 7 µM: 26%
  inhibition of growth at 20 µM: 32%
  inhibition of growth: 48%
  inhibition of growth at 40 µM: 55%
[7]; 120 h, day 5, read-out: EC50, µg/mL at Day 5, P. cactorum
  EC50: 20 µg/mL
[7]; [13]
  inhibition of growth at 1 µM: 11%
  inhibition of growth at 3 µM: 18%
  inhibition of growth at 7 µM: 22%
  inhibition of growth at 20 µM: 27%
  inhibition of growth: 36%
  inhibition of growth at 40 µM: 56%
[7]; [14]
  inhibition of growth at 1 µM: 12%
  inhibition of growth at 3 µM: 17%
  inhibition of growth at 7 µM: 22%
  inhibition of growth at 20 µM: 25%
  inhibition of growth: 33%
  inhibition of growth at 40 µM: 44%
[7]; [15]
  inhibition of growth at 1 µM: 11%
  inhibition of growth at 3 µM: 16%
  inhibition of growth at 20 µM: 9%
  inhibition of growth: 28%
  inhibition of growth at 40 µM: 41%

— publication PMC10607100, “Anticancer and Antiphytopathogenic Activity of Fluorinated Isatins and Their Water-Soluble Hydrazone Derivatives” (International Journal of Molecular Sciences, 2023)
